{"source": "patent US12161669B2", "about": "“Compositions and methods for cell targeting therapies” (UMC UTRECHT HOLDING B.V., priority 2017, dated 2024)", "key": {"RhoB [1]": {"system": "RhoB", "test": "Intracellular RhoB distribution by confocal microscopy in cell lines", "type": "cell-based", "settings": "cell lines (EBV-LCL 48)", "quoted_text": "For intracellular immunofluorescence staining of RhoB, cells were treated with pamidronate overnight (where indicated) and were allowed to attach onto coverslips precoated with poly-Llysine (Sigma-Aldrich). […] Cells were washed with blocking serum, fixed with 4% paraformaldehyde, stained with DAPI (where indicated), and mounted onto microscopy slides using Mowiol. Images were acquired using a Zeiss confocal laser scanning microscope LSM 700. Ratios between nuclear and extranuclear signal of RhoB was determined using Volocity software (PerkinElmer) or Image J software, where DAPI staining was used, when available, to mark nuclei."}, "RhoB [2]": {"system": "RhoB", "test": "Intracellular RhoB distribution in human dendritic cells", "type": "cell-based", "settings": "human dendritic cells treated with ABP", "procedure": "For intracellular immunofluorescence staining of RhoB, cells were treated with pamidronate overnight (where indicated) and were allowed to attach onto coverslips precoated with poly-Llysine (Sigma-Aldrich). Cells were subsequently permeabilized with Permeabilizing solution 2 (BD), blocked with blocking serum (50% pooled normal human serum in PBS), and stained with a rabbit polyclonal anti-RhoB antibody (AbCam) followed by a secondary Goat anti-Rabbit IgG Alexa Fluor 488-conjugated antibody (Jackson ImmunoResearch). Cells were washed with blocking serum, fixed with 4% paraformaldehyde, stained with DAPI (where indicated), and mounted onto microscopy slides using Mowiol. Images were acquired using a Zeiss confocal laser scanning microscope LSM 700. Ratios between nuclear and extranuclear signal of RhoB was determined using Volocity software (PerkinElmer) or Image J software, where DAPI staining was used, when available, to mark nuclei."}, "RhoB and CD277 [3]": {"system": "RhoB and CD277", "test": "Proximity ligation assay of RhoB and CD277 in EBV-LCL 48 cells", "type": "cell-based", "settings": "ABP pretreated vs medium"}, "RhoB and CD277 [4]": {"system": "RhoB and CD277", "test": "Flow cytometry FRET of RhoB-CD277 association in HEK 293 cells", "type": "cell-based", "settings": "ABP treated vs untreated", "procedure": "To study association of RhoB and BTN3 molecules, cells were permeabilized by using Permeabilization solution 2 (BD), then blocked with PBS containing 50% Human serum and labeled with rabbit polyclonal anti-RhoB antibody (AbCam). After washing with PBS, samples were labeled with Alexa594-conjugated Goat anti-Rabbit IgG (acceptor) (Jackson ImmunoResearch) and CD277-PE (donor) (BT3.1, Biollegend), respectively. The donor fluorescence was measured using a FACS Canto-II flow cytometer (BD) where donor fluorescence of the double-labeled samples was compared with that of samples labeled only with donor antibody. FRET efficiency was calculated from the fractional decrease of the donor fluorescence in the presence of the acceptor."}, "CD277": {"system": "CD277", "test": "Flow cytometry FRET between BODIPY FL-stained membrane and anti-CD277 mAbs (CD277 conformational change), HEK 293 cells", "type": "cell-based", "settings": "ABP vs unstimulated", "procedure": "Conformational change of BTN3 molecule was determined similarly as described in ([…] et al., 2001). Cells were labeled with 5 ug/ml BODIPY-FL DPHE (donor) (Life Technologies) for 10 minutes on ice and then 10 minutes at 37 C, then washed extensively with ice-cold PBS. Cells were subsequently labeled with mouse anti-CD277 mAbs (either clone #20.1 or #103.2) and Alexa594-conjugated Goat anti-Mouse Fab fragments (Jackson ImmunoResearch). After washing, cells were resuspended in ice cold PBS and measured immediately using a FACS Canto-II flowcytometer (BD). FRET efficiency was calculated from the fractional decrease of the donor fluorescence in the presence of the acceptor."}, "Daudi cells": {"system": "Daudi cells", "test": "sTCR YG-bead conjugation to Daudi cells", "type": "binding", "settings": "with vs without PAM", "description": "The extracellular domains of the TCR chains were amplified from synthetic DNA encoding the full length TCRs. The domain boundaries were based on ones published before for Vγ9Vδ2 TCR G115. The TCR chains were ligated in to a modified pBullet vector containing a μ-phosphatase signal peptide at the 5′ end and fos zipper at the 3′ end of the construct. The TCRγ chains were ligated in a modified pBullet vector containing a μ-phosphatase signal peptide at the 5′ end and at the 3′ a jun zipper followed by a biotin acceptor peptide and a poly-histidine tag. Synthetic DNA encoding for the bacterial biotin ligase BirA was also ligated in a pBullet vector containing a signal peptide. The expression of soluble γδTCRs was done in Freestyle 293-F cells (ThermoFisher). In short, plasmids containing TCRδ, TCRγ and BirA were mixed into a 45:45:10 ratio, combined with polyethylenimine (PEI) in a 2:3 ratio and incubated for 15′ at room temperature. […]\nFor tetramer and dextramer staining, 1.0*10^5 cells were incubated with 30 ul tetramer or dextramer solution (100 nM with respect to SA-PE) for 30 minutes at R.T. For beads staining, 7.5*10^4 cells were incubated with 20 μl sTCR-YG-beads (0.33 mg beads/ml) for 30. […] Samples were washed once with 1% formaldehyde and analyzed on a BD FACSCanto II (BD). γδTCR enrichment to synapse and conjugate formation"}}, "data": [{"smiles": "NCCC(O)(P(=O)(O)O)P(=O)(O)O", "note": "[pamidronate]", "values": [{"measurement": "Re-localization of RhoB from the nucleus or nuclear membrane to extranuclear sites", "setting": "RhoB [1]", "result": "induced"}, {"measurement": "RhoB exclusion from the nucleus", "setting": "RhoB [2]", "result": "excluded from the nucleus in human"}, {"measurement": "proximity of RhoB and CD277 (PLA signal)", "setting": "RhoB and CD277 [3]", "result": "in close proximity"}, {"measurement": "close association between RhoB and CD277 (FRET efficiency)", "setting": "RhoB and CD277 [4]", "result": "increased markedly"}, {"measurement": "FRET between stained membrane and anti-CD277 antibodies (20.1, 103.2)", "setting": "CD277", "result": "marked reduction in FRET signals"}, {"measurement": "intensity of TCR-YG-bead conjugation to Daudi cells", "setting": "Daudi cells", "result": "did not change"}]}]}
